Reference: ChEMBL document CHEMBL5096216, “Rational Design, Synthesis, and Biological Evaluation of Novel S1PR2 Antagonists for Reversing 5-FU-Resistance in Colorectal Cancer” (J Med Chem, 2022)
Calls of active or inactive are those of the source. No cut-off for these calls is given here.

Assays:
HT-29 [1] = assay: cells; conditions: Homo sapiens, HT-29, 48 h
Description: Reversal of 5-FU resistance in human HT-29 cells assessed as reduction in 5-Fluorouracil IC50 at 2 uM incubated for 48 hrs (Rvb = 2768.36 +/- 89.25 %)

SW620/5-FU [2] = assay: Induction of apoptosis in human SW620/5-FU cells assessed as viable cells at 20 uM incubated for 24 hrs by Annexin-V/PI staining based flow cytometry assay (reference value: 94.3%); type: functional; conditions: read-out: Activity
HT-29 [3] = assay: Downregulation of DPD expression in 5-FU resistant human HT-29 cells incubated for 12 hrs by Western blot analysis; type: functional, cell-based; conditions: dose 2.5-20 µM, DDE = dose-dependent effect
[4] = Metabolic stability in rat liver homogenate assessed as half life at 1 mg/ml incubated for 48 hrs by HPLC analysis; type: ADME, tissue-based
SW620/5-FU [5] = assay: Antitumor activity against human SW620/5-FU cells xenografted in nude mouse assessed as tumor volume at 10 mg/kg/day, iv measured on day 15 in presence of 5-FU (reference value: 1991 +/- 469 mm3); type: functional; conditions: time 15 day
[6] = target: Sphingosine 1-phosphate receptor 3 (Homo sapiens, UniProt Q99500); assay: Binding affinity to S1PR3 (unknown origin) assessed as dissociation constant by surface plasmon resonance analysis
[7] = target: Sphingosine 1-phosphate receptor 5 (Homo sapiens, UniProt Q9H228); assay: Binding affinity to S1PR5 (unknown origin) assessed as dissociation constant by surface plasmon resonance analysis
[8] = target: Sphingosine 1-phosphate receptor 1 (Homo sapiens, UniProt P21453); assay: Binding affinity to S1PR1 (unknown origin) assessed as dissociation constant by surface plasmon resonance analysis
SW620/5-FU [9] = assay: Induction of apoptosis in human SW620/5-FU cells assessed as necrotic cells at 20 uM incubated for 24 hrs by Annexin-V/PI staining based flow cytometry assay (reference value: 0%); type: functional
SW620/5-FU [10] = assay: Induction of apoptosis in human SW620/5-FU cells assessed as early apoptotic cells at 10 uM incubated for 24 hrs by Annexin-V/PI staining based flow cytometry assay (reference value: 2.73%); type: functional
[11] = Metabolic stability in rat plasma assessed as half life at 1 mg/ml incubated for 48 hrs by HPLC analysis; type: ADME, cell-free
SW620/5-FU [12] = assay: Induction of apoptosis in human SW620/5-FU cells assessed as early apoptotic cells at 10 uM incubated for 24 hrs in presence of 5-FU by Annexin-V/PI staining based flow cytometry assay (reference value: 2.73%); type: functional
[13] = Toxicity in nude mouse xenografted with human SW620/5-FU cells assessed as morphological changes in spleen at 1 to 10 mg/kg/day, iv by hematoxylin-eosin staining based analysis; type: organism-based; conditions: in vivo, dose 1-10 mg/kg/day
SW620/5-FU [14] = assay: Antitumor activity against human SW620/5-FU cells xenografted in nude mouse assessed as tumor growth inhibition at 10 mg/kg/day, iv in presence of 5-FU; type: functional; conditions: read-out: TGI
SW620/5-FU [15] = assay: Induction of apoptosis in human SW620/5-FU cells at 20 to 40 uM in presence of 5-FU by Hochest33342 staining based assay; type: functional, cell-based; conditions: dose 20-40 µM
[16] = Toxicity in nude mouse xenografted with human SW620/5-FU cells assessed as morphological changes in heart at 1 to 10 mg/kg/day, iv by hematoxylin-eosin staining based analysis; type: organism-based; conditions: in vivo, dose 1-10 mg/kg/day
HCT-116 [17] = assay: cells; conditions: Homo sapiens, HCT-116, 48 h
Description: Reversal of 5-FU resistance in human HCT-116 cells overexpressing DPD assessed as reduction in 5-Fluorouracil IC50 at 5 uM incubated for 48 hrs (Rvb = 1836.66 +/- 87.95 %)

SW620/5-FU [18] = assay: Induction of apoptosis in human SW620/5-FU cells assessed as early apoptotic cells at 20 uM incubated for 24 hrs in presence of 5-FU by Annexin-V/PI staining based flow cytometry assay (reference value: 2.73%); type: functional
SW620/5-FU [19] = assay: Antitumor activity against human SW620/5-FU cells xenografted in nude mouse assessed as tumor growth inhibition at 1 mg/kg/day, iv in presence of 5-FU; type: functional; conditions: read-out: TGI
SW620/5-FU [20] = assay: Induction of apoptosis in human SW620/5-FU cells assessed as late apoptotic cells at 10 uM incubated for 24 hrs by Annexin-V/PI staining based flow cytometry assay (reference value: 2.97%); type: functional
SW620/5-FU [21] = assay: Induction of apoptosis in human SW620/5-FU cells assessed as late apoptotic cells at 20 uM incubated for 24 hrs in presence of 5-FU by Annexin-V/PI staining based flow cytometry assay (reference value: 2.97%); type: functional
HCT-116 [22] = assay: Reversal of 5-FU resistance in human HCT-116 cells overexpressing DPD assessed as reduction in cell viability incubated for 48 hrs in presence of 5-FU by MTT assay; type: functional, cell-based; conditions: HCT-116, 48 h
SW620/5-FU [23] = assay: Reversal of 5-FU resistance in human SW620/5-FU cells assessed as reduction in cell viability incubated for 48 hrs in presence of 5-FU by MTT assay; type: functional, cell-based
HCT-116 [24] = assay: Reversal of 5-FU resistance in human HCT-116 cells overexpressing DPD assessed as fold reduction in 5-Fluorouracil IC50 at 5 uM incubated for 48 hrs; type: functional
SW620/5-FU [25] = assay: Antitumor activity against human SW620/5-FU cells xenografted in nude mouse assessed as tumor volume at 1 mg/kg/day, iv measured on day 15 in presence of 5-FU (reference value: 1991 +/- 469 mm3); type: functional; conditions: time 15 day
SW620/5-FU [26] = assay: Antiproliferative activity against human SW620/5-FU cells assessed as reduction in cell viability incubated for 48 hrs by MTT assay; type: functional, cell-based
HT-29 [27] = assay: Reversal of 5-FU resistance in human HT-29 cells assessed as reduction in cell viability incubated for 48 hrs in presence of 5-FU by MTT assay; type: functional, cell-based; conditions: HT-29, 48 h
HT-29 [28] = assay: Antiproliferative activity against human HT-29 cells assessed as reduction in cell viability incubated for 48 hrs by MTT assay; type: functional, cell-based; conditions: HT-29, 48 h
SW620/5-FU [29] = assay: Antitumor activity against human SW620/5-FU cells xenografted in nude mouse assessed as tumor volume at 10 mg/kg/day, iv measured on day 1 in presence of 5-FU (reference value: 105 +/- 14 mm3); type: functional; conditions: time 1 day
HT-29 [30] = assay: Downregulation of JMJD3 expression in 5-FU resistant human HT-29 cells incubated for 12 hrs by Western blot analysis; type: functional, cell-based; conditions: dose 2.5-20 µM, DDE = dose-dependent effect
[31] = Toxicity in nude mouse xenografted with human SW620/5-FU cells assessed as morphological changes in liver at 1 to 10 mg/kg/day, iv by hematoxylin-eosin staining based analysis; type: organism-based; conditions: in vivo, dose 1-10 mg/kg/day
[32] = target: Sphingosine 1-phosphate receptor 2 (Homo sapiens, UniProt O95136); assay: Binding affinity to S1PR2 (unknown origin) assessed as dissociation constant by surface plasmon resonance analysis
SW620/5-FU [33] = assay: Induction of apoptosis in human SW620/5-FU cells assessed as late apoptotic cells at 10 uM incubated for 24 hrs in presence of 5-FU by Annexin-V/PI staining based flow cytometry assay (reference value: 2.97%); type: functional
Mus musculus = assay: In vivo inhibition of tumor DPD expression in human SW620/5-FU cells xenografted in nude mouse at 1 to 10 mg/kg/day by Western blot analysis; type: functional, organism-based; conditions: dose 1-10 mg/kg/day
SW620/5-FU [34] = assay: Induction of apoptosis in human SW620/5-FU cells assessed as necrotic cells at 10 uM incubated for 24 hrs in presence of 5-FU by Annexin-V/PI staining based flow cytometry assay (reference value: 0%); type: functional

Chain of Sphingosine 1-phosphate receptor 5 (Q9H228 whole entry): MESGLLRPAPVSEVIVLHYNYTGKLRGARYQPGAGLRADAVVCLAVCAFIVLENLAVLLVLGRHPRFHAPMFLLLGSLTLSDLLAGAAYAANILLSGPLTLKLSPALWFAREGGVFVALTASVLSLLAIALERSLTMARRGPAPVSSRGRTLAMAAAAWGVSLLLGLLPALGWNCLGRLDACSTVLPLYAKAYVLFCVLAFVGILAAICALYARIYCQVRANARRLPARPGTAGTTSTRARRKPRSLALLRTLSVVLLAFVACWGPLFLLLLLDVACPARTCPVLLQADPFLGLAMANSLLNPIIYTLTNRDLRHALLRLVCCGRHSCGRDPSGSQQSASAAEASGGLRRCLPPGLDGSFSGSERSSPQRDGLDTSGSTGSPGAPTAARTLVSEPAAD
Chain of Sphingosine 1-phosphate receptor 3 (Q99500 whole entry): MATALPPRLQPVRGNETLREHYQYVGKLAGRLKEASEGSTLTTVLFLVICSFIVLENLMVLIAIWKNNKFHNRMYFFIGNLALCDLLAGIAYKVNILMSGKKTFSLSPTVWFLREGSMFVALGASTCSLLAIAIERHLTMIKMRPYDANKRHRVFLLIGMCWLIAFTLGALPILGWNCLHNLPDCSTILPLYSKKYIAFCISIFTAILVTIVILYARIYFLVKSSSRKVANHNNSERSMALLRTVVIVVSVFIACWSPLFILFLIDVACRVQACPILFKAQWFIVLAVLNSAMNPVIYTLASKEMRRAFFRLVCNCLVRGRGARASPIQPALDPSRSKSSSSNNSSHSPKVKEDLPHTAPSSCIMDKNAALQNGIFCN
Chain of Sphingosine 1-phosphate receptor 1 (P21453 whole entry): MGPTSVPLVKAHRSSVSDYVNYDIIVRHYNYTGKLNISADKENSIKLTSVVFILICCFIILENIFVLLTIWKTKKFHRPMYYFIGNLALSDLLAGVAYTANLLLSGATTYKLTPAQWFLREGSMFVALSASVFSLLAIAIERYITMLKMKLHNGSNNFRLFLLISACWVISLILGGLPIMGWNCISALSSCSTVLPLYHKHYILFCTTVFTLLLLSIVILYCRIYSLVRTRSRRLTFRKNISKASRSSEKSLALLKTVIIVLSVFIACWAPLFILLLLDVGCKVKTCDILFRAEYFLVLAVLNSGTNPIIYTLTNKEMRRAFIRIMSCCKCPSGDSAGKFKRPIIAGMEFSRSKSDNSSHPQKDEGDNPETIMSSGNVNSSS
Chain of Sphingosine 1-phosphate receptor 2 (O95136 whole entry): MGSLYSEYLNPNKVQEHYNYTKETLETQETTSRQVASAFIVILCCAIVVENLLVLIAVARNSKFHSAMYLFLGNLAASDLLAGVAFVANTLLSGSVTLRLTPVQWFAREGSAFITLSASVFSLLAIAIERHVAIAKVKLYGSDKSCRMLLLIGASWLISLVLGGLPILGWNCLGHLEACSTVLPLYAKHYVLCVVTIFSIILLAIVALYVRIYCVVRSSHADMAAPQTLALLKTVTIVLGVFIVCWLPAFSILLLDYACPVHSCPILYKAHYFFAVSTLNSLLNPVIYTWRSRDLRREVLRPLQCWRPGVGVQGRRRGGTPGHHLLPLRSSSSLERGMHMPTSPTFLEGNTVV

IC50 (HT-29 [1]): 42100 nM
half-life at 1 mg/ml [4]: > 48 h
Kd [6]: > 100 nM
Kd [7]: > 100 nM
Kd [8]: > 100 nM
half-life at 1 mg/ml [11]: > 48 h
IC50 (HCT-116 [17]): 45100 nM
IC50 (HCT-116 [22]): 6420 nM
IC50 (SW620/5-FU [23]): 1990 nM
IC50 (SW620/5-FU [26]): > 100000 nM
IC50 (HT-29 [27]): 2510 nM
IC50 (HT-29 [28]): > 100000 nM
Kd [32]: 0.73 nM
SMILES: CCC(CC)CN1CCN(C(=O)Nc2cc(Oc3ccc(F)cc3)cc(Oc3ccc(C(=O)NC)cc3)c2)CC1
viability at 20 µM (SW620/5-FU [2]): 92.1%
Activity (HT-29 [3]): Dde
Activity (SW620/5-FU [5]): 521 mm3
Activity (SW620/5-FU [9]): 0.086%
Activity (SW620/5-FU [10]): 3.41%
Activity (SW620/5-FU [12]): 4.41%
Activity [13]: Non-Toxic
inhibition in vivo at 10 mg/kg/day (SW620/5-FU [14]): 73.8%
Activity (SW620/5-FU [15]): Active
Activity [16]: Non-Toxic
Activity (SW620/5-FU [18]): 28.6%
inhibition in vivo at 1 mg/kg/day (SW620/5-FU [19]): 49.5%
Activity (SW620/5-FU [20]): 2.76%
Activity (SW620/5-FU [21]): 7.14%
fold change (FC) (HCT-116 [24]): 41
Activity (SW620/5-FU [25]): 1006 mm3
Activity (SW620/5-FU [29]): 104 mm3
Activity (HT-29 [30]): Dde
Activity [31]: Non-Toxic
Activity (SW620/5-FU [33]): 7.76%
inhibition (Mus musculus): Active
Activity (SW620/5-FU [34]): 0.17%
